Read-outs that look alike come from different tables or passages of the source.
Test system: primary rat mixed cortical cells
Assay: In vitro myelination assay (MBP positive myelin strands, fold myelin pixels above background)
Format: cell-based
Details: for fold induction at 1 µM / fold induction at 10 µM: Rattus norvegicus; for fold induction at 1 µM: 1.0 μM compound
How it was run: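 Read-out is total MBP-positive myelin strand pixels per well, detected by custom ridge-tracing software and reported as fold over untreated baseline. Primary P1 rat mixed cortical cells received compound (1.0 or 10.0 μM) for 14 days, with medium half-replaced on days 6 and 10. Standard deviation was taken across all replicates.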

[1] = read-out: Fold myelin pixels above background relative to baseline of no added compound
[2] = 10.0 μM compound, read-out: Fold myelin pixels above background relative to baseline of no added compound
[3] = relative to baseline of no added compound, read-out: Fold myelin pixels above background
[4] = 10.0 μM compound, relative to baseline of no added compound, read-out: Fold myelin pixels above background
[5] = relative to baseline of no added compound, read-out: Fold myelin pixels above background, 1.0 μM
[6] = 10.0 μM compound, relative to baseline of no added compound, read-out: Fold myelin pixels above background, 10.0 μM

Row | SMILES | fold induction at 1 µM [3] | fold induction at 10 µM [4] | fold induction at 1 µM [5] | fold induction at 10 µM [6] | other results
1 | [2H]C(C)(C)N1CCN(c2cc(C)cc(Nc3ncn(-c4ccccc4)n3)c2)CC1 [Compound 929, N-[3-[4-(1-deuterio-1-methyl-ethyl)piperazin-1-yl]-5-methyl-phenyl]-1-phenyl-1,2,4-triazol-3-amine] | – | – | – | – | fold induction at 1 µM [1]: 10 to 100; fold induction at 10 µM [2]: ≤ 1
2 | Cc1cc(NCCC2CCCO2)cc(Nc2ncn(-c3cc(F)cc(F)c3)n2)c1 (stereo not drawn) [Compound 496, N1-[1-(3,5-difluorophenyl)-1,2,4-triazol-3-yl]-5-methyl-N3-(2-tetrahydrofuran-2-ylethyl)benzene-1,3-diamine] | 100 to 1000 | 1 to 10 | – | – | –
3 | CCc1cc(Nc2ncn(-c3cncnc3)n2)cc(N2CCN(C3COC3)CC2)c1 [Compound 549, N-[3-ethyl-5-[4-(oxetan-3-yl)piperazin-1-yl]phenyl]-1-pyrimidin-5-yl-1,2,4-triazol-3-amine] | 1 to 10 | 10 to 100 | – | – | –
4 | Cc1cc(Nc2ncn(-c3cccc(F)c3)n2)c(F)c(OC2CCOC2)c1 (single isomer, unassigned) [Compound 1061, N-(2-fluoro-5-methyl-3-tetrahydrofuran-3-yloxy-phenyl)-1-(3-fluorophenyl)-1,2,4-triazol-3-amine] | – | – | – | – | Fold myelin pixels above background relative to baseline of no added compound (10.0 μM compound): ++ (>10 to 100x); fold induction at 1 µM [1]: 10 to 100
5 | Cc1cc(Nc2ncn(-c3ccccc3)n2)cc(N2CCCC(C#N)C2)c1 (stereo not drawn) [Compound 146, 1-[3-methyl-5-[(1-phenyl-1,2,4-triazol-3-yl)amino]phenyl]piperidine-3-carbonitrile] | – | – | 1000 to 10000 | 100 to 1000 | –
6 | Cc1cc(Nc2ncn(-c3ccccc3)n2)cc(N2CCN(C)C(C)C2)c1 (stereo not drawn) [Compound 133, N-[3-(3,4-dimethylpiperazin-1-yl)-5-methyl-phenyl]-1-phenyl-1,2,4-triazol-3-amine] | – | – | 1000 to 10000 | ≤ 1 | –
7 | Fc1cc(F)cc(-n2cnc(Nc3cc(Cl)cc(N4CCOCC4)c3)n2)c1 [Compound 426, N-(3-chloro-5-morpholino-phenyl)-1-(3,5-difluorophenyl)-1,2,4-triazol-3-amine] | 1000 to 10000 | 1000 to 10000 | – | – | –
8 | CC(=O)N1CCN(c2cc(C(F)(F)F)cc(Nc3ncn(-c4cc(F)cc(F)c4)n3)n2)CC1 [Compound 555, 1-[4-[6-[[1-(3,5-difluorophenyl)-1,2,4-triazol-3-yl]amino]-4-(trifluoromethyl)-2-pyridyl]piperazin-1-yl]ethanone] | 10 to 100 | 100 to 1000 | – | – | –
9 | Cc1cc(Nc2ncn(-c3cccc(OC(F)(F)F)c3)n2)cc(N2CCN(C3COC3)CC2)c1 [Compound 252, N-[3-methyl-5-[4-(oxetan-3-yl)piperazin-1-yl]phenyl]-1-[3-(trifluoromethoxy)phenyl]-1,2,4-triazol-3-amine] | – | – | 1000 to 10000 | 10 to 100 | –
10 | Cc1cc(Nc2ncn(-c3ccncc3)n2)cc(N2CCN(C3COC3)CC2)c1 [Compound 224, N-[3-methyl-5-[4-(oxetan-3-yl)piperazin-1-yl]phenyl]-1-(4-pyridyl)-1,2,4-triazol-3-amine] | – | – | 100 to 1000 | 10 to 100 | –
11 | Cc1cc(Nc2ncn(-c3cc(F)cc(F)c3)n2)cc(OCc2ccn(C)n2)c1 [Compound 605, 1-(3,5-difluorophenyl)-N-[3-methyl-5-[(1-methylpyrazol-3-yl)methoxy]phenyl]-1,2,4-triazol-3-amine] | 10 to 100 | 10 to 100 | – | – | –
12 | Cc1cc(Nc2ncn(-c3cnccn3)n2)cc(C2CCCN(C3COC3)C2)c1 (stereo not drawn) [Compound 74, N-[3-methyl-5-[1-(oxetan-3-yl)-3-piperidyl]phenyl]-1-pyrazin-2-yl-1,2,4-triazol-3-amine] | – | – | 100 to 1000 | 100 to 1000 | –
13 | Fc1cc(Nc2ncn(-c3ccccc3)n2)cc(N2CCOCC2)c1 [Compound 80, N-(3-fluoro-5-morpholino-phenyl)-1-phenyl-1,2,4-triazol-3-amine] | – | – | 10 to 100 | 1000 to 10000 | –
14 | CCc1cc(F)cc(-n2cnc(Nc3cc(C)cc(N4CCN(C5COC5)CC4)c3)n2)c1 [Compound 206, 1-(3-ethyl-5-fluoro-phenyl)-N-[3-methyl-5-[4-(oxetan-3-yl)piperazin-1-yl]phenyl]-1,2,4-triazol-3-amine] | – | – | 100 to 1000 | 100 to 1000 | –
15 | Cc1cc(Nc2ncn(-c3cccnc3)n2)cc(C2COC2)c1 [Compound 270, N-[3-methyl-5-(oxetan-3-yl)phenyl]-1-(3-pyridyl)-1,2,4-triazol-3-amine] | – | – | 100 to 1000 | 100 to 1000 | –
16 | Cc1cc(Nc2ncn(-c3cc(F)cc(F)c3)n2)cc(N2CC(O)(C(C)C)C2)c1 [Compound 518, 1-[3-[[1-(3,5-difluorophenyl)-1,2,4-triazol-3-yl]amino]-5-methyl-phenyl]-3-isopropyl-azetidin-3-ol] | 10 to 100 | 10 to 100 | – | – | –
17 | Fc1cc(F)cc(-n2cnc(Nc3cc(C4=CCOC4)cc(N4CCOCC4)c3)n2)c1 [Compound 298, 1-(3,5-difluorophenyl)-N-[3-(2,5-dihydrofuran-3-yl)-5-morpholino-phenyl]-1,2,4-triazol-3-amine] | – | – | 1000 to 10000 | 100 to 1000 | –
18 | Cc1cc(Nc2ncn(-c3ccc(C)c(Cl)c3)n2)cc(N2CCN(C3COC3)CC2)c1 [Compound 767, 1-(3-chloro-4-methyl-phenyl)-N-[3-methyl-5-[4-(oxetan-3-yl)piperazin-1-yl]phenyl]-1,2,4-triazol-3-amine] | 1 to 10 | 10 to 100 | – | – | –
19 | Cc1cc(Nc2ncn(-c3cc(F)cc(F)c3)n2)nc(N2CCN(C(C)(C)C)CC2)c1 [Compound 702, 6-(4-tert-butylpiperazin-1-yl)-N-[1-(3,5-difluorophenyl)-1,2,4-triazol-3-yl]-4-methyl-pyridin-2-amine] | 10 to 100 | 10 to 100 | – | – | –
20 | Cc1cc(Nc2ncn(-c3cccc(C(F)(F)F)c3)n2)cc(OCCn2cccn2)c1 [Compound 644, N-[3-methyl-5-(2-pyrazol-1-ylethoxy)phenyl]-1-[3-(trifluoromethyl)phenyl]-1,2,4-triazol-3-amine] | 1 to 10 | 10 to 100 | – | – | –
21 | Cc1cc(Nc2ncn(-c3cc(F)cc(F)c3)n2)cc(N2C3CCC2COC3)c1 [Compound 722, 1-(3,5-difluorophenyl)-N-[3-methyl-5-(3-oxa-8-azabicyclo[3.2.1]octan-8-yl)phenyl]-1,2,4-triazol-3-amine] | 10 to 100 | 10 to 100 | – | – | –
22 | Fc1cc(F)cc(-n2cnc(Nc3cc(Cl)cc(NC4COC4)c3)n2)c1 [Compound 705, 5-chloro-N3-[1-(3,5-difluorophenyl)-1,2,4-triazol-3-yl]-N1-(oxetan-3-yl)benzene-1,3-diamine] | 10 to 100 | 1 to 10 | – | – | –
23 | Cc1cc(Nc2ncn(-c3cccc(F)c3)n2)cc(N2CCC(C3COC3)CC2)c1 [Compound 522, 1-(3-fluorophenyl)-N-[3-methyl-5-[4-(oxetan-3-yl)-1-piperidyl]phenyl]-1,2,4-triazol-3-amine] | 100 to 1000 | 100 to 1000 | – | – | –
24 | Cc1cc(Nc2ncn(-c3cnccn3)n2)cc(N2CCC(C3COC3)CC2)c1 [Compound 521, N-[3-methyl-5-[4-(oxetan-3-yl)-1-piperidyl]phenyl]-1-pyrazin-2-yl-1,2,4-triazol-3-amine] | 100 to 1000 | 100 to 1000 | – | – | –
25 | Cc1cc(Nc2ncn(-c3ccc(F)cc3)n2)cc(OC2CCN(C3COC3)CC2)c1 [Compound 201, 1-(4-fluorophenyl)-N-[3-methyl-5-[[1-(oxetan-3-yl)-4-piperidyl]oxy]phenyl]-1,2,4-triazol-3-amine] | – | – | 1000 to 10000 | ≤ 1 | –
26 | Cc1cc(Nc2ncn(-c3cnccn3)n2)c(F)c(OC2CCOC2)c1 (stereo not drawn) [Compound 952, N-(2-fluoro-5-methyl-3-tetrahydrofuran-3-yloxy-phenyl)-1-pyrazin-2-yl-1,2,4-triazol-3-amine] | – | – | – | – | fold induction at 1 µM [1]: 1 to 10; fold induction at 10 µM [2]: 1 to 10
27 | Cc1cc(Nc2ncn(-c3cc(F)cc(F)c3)n2)cc(N[C@H]2C[C@@H](N3CCOCC3)C2)c1 (single isomer, unassigned) [Compound 861, N1-[1-(3,5-difluorophenyl)-1,2,4-triazol-3-yl]-5-methyl-N3-(3-morpholinocyclobutyl)benzene-1,3-diamine] | – | – | – | – | fold induction at 1 µM [1]: 10 to 100; fold induction at 10 µM [2]: ≤ 1
28 | c1ccc(-n2cnc(Nc3cc(C4CC4)nc(N4CCC5(CC4)OCCO5)c3)n2)cc1 [Compound 9, 2-cyclopropyl-6-(1,4-dioxa-8-azaspiro[4.5]decan-8-yl)-N-(1-phenyl-1,2,4-triazol-3-yl)pyridin-4-amine] | – | – | 1000 to 10000 | 100 to 1000 | –
29 | Fc1cc(F)cc(-n2cnc(Nc3cc(C(F)F)cc(N4CC(N5CCOCC5)C4)c3)n2)c1 [Compound 804, N-[3-(difluoromethyl)-5-(3-morpholinoazetidin-1-yl)phenyl]-1-(3,5-difluorophenyl)-1,2,4-triazol-3-amine] | – | – | – | – | fold induction at 1 µM [1]: 10 to 100; fold induction at 10 µM [2]: ≤ 1
30 | Cc1cc(Nc2ncn(-c3cc(F)cc(F)c3F)n2)cc(N2CCN(C3COC3)CC2)c1 [Compound 484, N-[3-methyl-5-[4-(oxetan-3-yl)piperazin-1-yl]phenyl]-1-(2,3,5-trifluorophenyl)-1,2,4-triazol-3-amine] | ≤ 1 | ≤ 1 | – | – | –

From patent publication US10766869B2, “Triazoles for the treatment of demyelinating dieases” (Vertex Pharmaceuticals Incorporated, priority 2015, dated 2020)
